According to patent publication US20230072860A1, “ISOXAZOLINE OXIME FORMATE COMPOUND, PREPARATION METHOD THEREFOR, HERBICIDAL COMPOSITION AND USE THEREOF” (QINGDAO KINGAGROOT CHEMICAL COMPOUND CO., LTD., priority 2020, published 2023):

Key:
Test in all cases: Experiment on weeding effect in post-emergence stage
Assay type in all cases: in vivo
Conditions in all cases: dose 15 g a.i./ha, fresh weight control rate level
Abutilon theophrasti = system: Abutilon theophrasti
From the text: (§1) Experiment on weeding effect in post-emergence stage:
(§2) Monocotyledonous and dicotyledonous weed seeds (Descurainia sophia, Capsella bursa-pastoris, Abutilon theophrasti, Galium aparine, Stellaria media, Lithospermum arvense, Rorippa indica, Alopecurus aequalis, Alopecurus japonicus, Beckmannia syzigachne, Sclerochloa dura, Conyza Canadensis, Phleum paniculatum, Veronica didyma Tenore, Eleusine indica, Bromus japonicus, Aegilops tauschii, Phalaris arundinacea, Amaranthus retroflexus, Chenopodium album, Commelina communis, Sonchus arvensis, Convolvulus arvensis, Cirsium setosum, Solanum nigrum, Acalypha australis, Digitaria sanguinalis, Echinochloa crusgalli, Setaria viridis, Setaria glauca, Leptochloa chinensis, Monochoria vaginalis, Sagittaria trolia, Scirpus juncoides, Cyperus rotundus, Cyperus iria, Cyperus difformis, Elmbristylis, Portulaca oleracea, Xanthium sibiricum, Pharbitis nil) and major crop seeds (wheat, corn, rice, soybean, cotton, oilseed rape, millet, sorghum, potato, sesame, ricinus) were placed in plastic pots filled with soil, then covered with 0.5-2 cm of soil, allowed to grow in a good greenhouse environment. After 2 weeks of sowing, the test plants were treated in the 2-3 leaf stage. The tested compounds of the present invention were respectively dissolved in acetone, then added with Tween 80 and 1.5 liter/ha of emulsifiable concentrate of methyl oleate as synergist, diluted with a certain amount of water to obtain a solution with a certain concentration, and sprayed with a spray tower onto the plants. After the application, the plants were cultured for 3 weeks in the greenhouse, and then the experimental results of the weeding were counted. The doses of the used compounds were 500, 250, 125, 60, 15 g a.i./ha, and the averages were obtained by repeating for three times.

Amaranthus retroflexus = system: Amaranthus retroflexus
From the text: as §1, §2

Digitaria sanguinalis = system: Digitaria sanguinalis
From the text: as §1, §2

Echinochloa crusgalli = system: Echinochloa crusgalli
From the text: as §1, §2

Eleusine indica = system: Eleusine indica
From the text: as §1, §2

Galium aparine = system: Galium aparine
From the text: as §1, §2

Leptochloa chinensis = system: Leptochloa chinensis
From the text: as §1, §2

Setaria viridis = system: Setaria viridis
From the text: as §1, §2

Veronica didyma Tenore = system: Veronica didyma Tenore
From the text: as §1, §2

Structure (SMILES)	weeding effect in post-emergence stage, Abutilon theophrasti (level) (Abutilon theophrasti)	weeding effect in post-emergence stage, Amaranthus retroflexus (level) (Amaranthus retroflexus)	weeding effect in post-emergence stage, Digitaria sanguinalis (level) (Digitaria sanguinalis)	weeding effect in post-emergence stage, Echinochloa crusgalli (level) (Echinochloa crusgalli)	weeding effect in post-emergence stage, Eleusine indica (level) (Eleusine indica)	weeding effect in post-emergence stage, Galium aparine (level) (Galium aparine)	weeding effect in post-emergence stage, Leptochloa chinensis (level) (Leptochloa chinensis)	weeding effect in post-emergence stage, Setaria viridis (level) (Setaria viridis)	weeding effect in post-emergence stage, Veronica didyma Tenore (level) (Veronica didyma Tenore)
C/C(=N\OC(=O)C1(C)CC(c2cc(-n3c(=O)n(C)c(=S)n(C)c3=S)c(F)cc2Cl)=NO1)C(C)C (stereo not drawn) [Compound 58]	5 (Level 5: growth control rate is above 85%)	5 (Level 5: growth control rate is above 85%)	5 (Level 5: growth control rate is above 85%)	5 (Level 5: growth control rate is above 85%)	5 (Level 5: growth control rate is above 85%)	5 (Level 5: growth control rate is above 85%)	5 (Level 5: growth control rate is above 85%)	5 (Level 5: growth control rate is above 85%)	5 (Level 5: growth control rate is above 85%)
C/C(=N\OC(=O)C1(C)CC(c2cc(-n3c(=O)n(C)c(=S)n(C)c3=S)c(F)cc2Cl)=NO1)C(C)(C)C (stereo not drawn) [Compound 59]	5 (Level 5: growth control rate is above 85%)	5 (Level 5: growth control rate is above 85%)	5 (Level 5: growth control rate is above 85%)	5 (Level 5: growth control rate is above 85%)	5 (Level 5: growth control rate is above 85%)	5 (Level 5: growth control rate is above 85%)	5 (Level 5: growth control rate is above 85%)	5 (Level 5: growth control rate is above 85%)	5 (Level 5: growth control rate is above 85%)
CCC(CC)=NOC(=O)C1(C)CC(c2cc(-n3c(=O)n(C)c(=S)n(C)c3=S)c(F)cc2Cl)=NO1 (stereo not drawn) [Compound 60]	5 (Level 5: growth control rate is above 85%)	5 (Level 5: growth control rate is above 85%)	5 (Level 5: growth control rate is above 85%)	5 (Level 5: growth control rate is above 85%)	5 (Level 5: growth control rate is above 85%)	5 (Level 5: growth control rate is above 85%)	5 (Level 5: growth control rate is above 85%)	5 (Level 5: growth control rate is above 85%)	5 (Level 5: growth control rate is above 85%)
C/C(=N\OC(=O)C1(C)CC(c2cc(-n3c(=O)n(C)c(=S)n(C)c3=S)c(F)cc2Cl)=NO1)C1CC1 (stereo not drawn) [Compound 61]	5 (Level 5: growth control rate is above 85%)	5 (Level 5: growth control rate is above 85%)	5 (Level 5: growth control rate is above 85%)	5 (Level 5: growth control rate is above 85%)	5 (Level 5: growth control rate is above 85%)	5 (Level 5: growth control rate is above 85%)	5 (Level 5: growth control rate is above 85%)	5 (Level 5: growth control rate is above 85%)	5 (Level 5: growth control rate is above 85%)
CCO/C(C)=N/OC(=O)C1(C)CC(c2cc(-n3c(=O)n(C)c(=S)n(C)c3=S)c(F)cc2Cl)=NO1 (stereo not drawn) [Compound 67]	5 (Level 5: growth control rate is above 85%)	5 (Level 5: growth control rate is above 85%)	5 (Level 5: growth control rate is above 85%)	5 (Level 5: growth control rate is above 85%)	5 (Level 5: growth control rate is above 85%)	5 (Level 5: growth control rate is above 85%)	5 (Level 5: growth control rate is above 85%)	5 (Level 5: growth control rate is above 85%)	5 (Level 5: growth control rate is above 85%)
COC/C(C)=N/OC(=O)C1(C)CC(c2cc(-n3c(=O)n(C)c(=S)n(C)c3=S)c(F)cc2Cl)=NO1 (stereo not drawn) [Compound 68]	5 (Level 5: growth control rate is above 85%)	5 (Level 5: growth control rate is above 85%)	5 (Level 5: growth control rate is above 85%)	5 (Level 5: growth control rate is above 85%)	5 (Level 5: growth control rate is above 85%)	5 (Level 5: growth control rate is above 85%)	5 (Level 5: growth control rate is above 85%)	5 (Level 5: growth control rate is above 85%)	5 (Level 5: growth control rate is above 85%)
Cn1c(=S)n(C)c(=S)n(-c2cc(C3=NOC(C)(C(=O)O/N=C/c4ccccc4)C3)c(Cl)cc2F)c1=O (stereo not drawn) [Compound 69]	5 (Level 5: growth control rate is above 85%)	5 (Level 5: growth control rate is above 85%)	5 (Level 5: growth control rate is above 85%)	5 (Level 5: growth control rate is above 85%)	5 (Level 5: growth control rate is above 85%)	5 (Level 5: growth control rate is above 85%)	5 (Level 5: growth control rate is above 85%)	5 (Level 5: growth control rate is above 85%)	5 (Level 5: growth control rate is above 85%)
C/C(=N\OC(=O)C1(C)CC(c2cc(-n3c(=O)n(C)c(=S)n(C)c3=S)c(F)cc2Cl)=NO1)c1ccccc1 (stereo not drawn) [Compound 70]	5 (Level 5: growth control rate is above 85%)	5 (Level 5: growth control rate is above 85%)	5 (Level 5: growth control rate is above 85%)	5 (Level 5: growth control rate is above 85%)	5 (Level 5: growth control rate is above 85%)	5 (Level 5: growth control rate is above 85%)	5 (Level 5: growth control rate is above 85%)	5 (Level 5: growth control rate is above 85%)	5 (Level 5: growth control rate is above 85%)
Cn1c(=S)n(C)c(=S)n(-c2cc(C3=NOC(C)(C(=O)ON=C(c4ccccc4)c4ccccc4)C3)c(Cl)cc2F)c1=O (stereo not drawn) [Compound 71]	5 (Level 5: growth control rate is above 85%)	5 (Level 5: growth control rate is above 85%)	5 (Level 5: growth control rate is above 85%)	5 (Level 5: growth control rate is above 85%)	5 (Level 5: growth control rate is above 85%)	5 (Level 5: growth control rate is above 85%)	5 (Level 5: growth control rate is above 85%)	5 (Level 5: growth control rate is above 85%)	5 (Level 5: growth control rate is above 85%)
